Columns and labels:
Coagulation factor X = Coagulation factor X (Homo sapiens, UniProt P00742); assay: Inhibition of coagulation factor X
Prothrombin = Prothrombin (Homo sapiens, UniProt P00734); assay: Inhibition of human thrombin
[1] = Inhibition of bovine trypsin; set-up: species or system Bos taurus
Plasminogen = Plasminogen (Homo sapiens, UniProt P00747); assay: Inhibition of plasmin
Homo sapiens = species: Homo sapiens; assay: Antithrombotic activity by measuring the activated partial thromboplastin time(aPPT) in human plasma; format: functional
[2] = Partition coefficient (logP); format: physicochemical; conditions: octanol/water

Chain of Coagulation factor X (P00742 41-179 limits assumed): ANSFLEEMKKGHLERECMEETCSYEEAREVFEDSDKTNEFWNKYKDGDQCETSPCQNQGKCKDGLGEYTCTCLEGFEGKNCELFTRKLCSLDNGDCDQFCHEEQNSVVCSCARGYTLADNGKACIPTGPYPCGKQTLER
Chain of Coagulation factor X (P00742 235-488 limits assumed): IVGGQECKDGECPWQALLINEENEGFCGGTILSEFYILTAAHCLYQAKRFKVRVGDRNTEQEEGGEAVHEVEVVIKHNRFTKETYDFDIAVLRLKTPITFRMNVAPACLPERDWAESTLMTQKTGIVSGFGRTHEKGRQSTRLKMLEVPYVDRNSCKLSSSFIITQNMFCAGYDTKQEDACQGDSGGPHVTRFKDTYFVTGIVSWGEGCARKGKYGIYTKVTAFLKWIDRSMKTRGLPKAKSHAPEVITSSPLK
Chain of Plasminogen (P00747 97-580 limits assumed): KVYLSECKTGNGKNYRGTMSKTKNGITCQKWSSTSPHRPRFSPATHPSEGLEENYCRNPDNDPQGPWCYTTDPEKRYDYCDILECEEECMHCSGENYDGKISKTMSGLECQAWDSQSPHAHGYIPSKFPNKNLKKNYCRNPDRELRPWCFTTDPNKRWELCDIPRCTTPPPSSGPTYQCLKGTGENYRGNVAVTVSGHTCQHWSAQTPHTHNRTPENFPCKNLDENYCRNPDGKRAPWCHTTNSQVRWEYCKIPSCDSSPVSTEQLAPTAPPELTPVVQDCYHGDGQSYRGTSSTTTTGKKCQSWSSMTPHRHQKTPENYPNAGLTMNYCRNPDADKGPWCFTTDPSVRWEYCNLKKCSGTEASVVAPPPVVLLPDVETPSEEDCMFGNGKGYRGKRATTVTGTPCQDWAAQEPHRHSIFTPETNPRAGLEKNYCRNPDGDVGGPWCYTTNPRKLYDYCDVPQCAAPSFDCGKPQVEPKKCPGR
Chain of Plasminogen (P00747 581-810 limits assumed): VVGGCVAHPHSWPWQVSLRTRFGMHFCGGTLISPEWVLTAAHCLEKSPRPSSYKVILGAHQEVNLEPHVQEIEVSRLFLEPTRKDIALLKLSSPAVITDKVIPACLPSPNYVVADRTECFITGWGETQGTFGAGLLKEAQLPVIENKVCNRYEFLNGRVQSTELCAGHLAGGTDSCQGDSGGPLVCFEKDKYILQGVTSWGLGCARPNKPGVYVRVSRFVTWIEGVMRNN

**Q.** Which IC50 (Coagulation factor X) does the source give for `Cn1c(=O)c(Cc2ccc(C(=N)N)cc2)nc2cc(C3(C(=O)N4CCCC4CO)CC3)ccc21` (centres undefined) here?
**A.** 1.4 µM

**Q.** What about the IC50 (Prothrombin) of the same molecule?
**A.** 0.013 µM

**Q.** What about the IC50 [1] of the same molecule?
**A.** 0.85 µM

**Q.** And the IC50 (Plasminogen)?
**A.** 72 µM

**Q.** What about the ED200 (Homo sapiens) of the same molecule?
**A.** 0.21 µM

**Q.** Which IC50 (Coagulation factor X) does the source give for `Cn1c(=O)c(Cc2ccc(C(=N)N)cc2)nc2cc(C(C)(C)C(=O)N3CCNCC3)ccc21` here?
**A.** 31 µM

**Q.** What about the IC50 (Prothrombin) of the same molecule?
**A.** 0.068 µM

**Q.** And the ED200 (Homo sapiens)?
**A.** 0.71 µM

**Q.** What does the source list for `CCOC(=O)C1(c2ccc3c(c2)nc(Cc2ccc(C(=N)N)cc2)c(=O)n3C)CC1`?
**A.** IC50 (Coagulation factor X): 46 µM; IC50 (Prothrombin): 0.027 µM; IC50 [1]: 0.58 µM; IC50 (Plasminogen): 69 µM; ED200 (Homo sapiens): 0.67 µM

**Q.** For `CN(C)C(=O)C(C)(C)c1ccc2c(c1)nc(Cc1ccc(C(=N)N)cc1)c(=O)n2C`, which IC50 (Coagulation factor X) is on record?
**A.** 9.2 µM

**Q.** What about the IC50 (Prothrombin) of the same molecule?
**A.** 0.016 µM

**Q.** And the IC50 [1]?
**A.** 9.5 µM

**Q.** What about the IC50 (Plasminogen) of the same molecule?
**A.** > 100 µM

**Q.** And the ED200 (Homo sapiens)?
**A.** 0.41 µM

**Q.** With `Cn1c(=O)c(Cc2ccc(C(=N)N)cc2)nc2cc(C3(C(=O)O)CC3)ccc21` as the molecule, how does the IC50 (Coagulation factor X) read?
**A.** > 100 µM

**Q.** What about the ED200 (Homo sapiens) of the same molecule?
**A.** >10 µM

**Q.** Which logP [2] does the source give for `Cn1c(=O)c(Cc2ccc(C(=N)N)cc2)nc2cc(C3(C(=O)N4CCCC4)CC3)ccc21` here?
**A.** 1.5

**Q.** What about the IC50 (Plasminogen) of the same molecule?
**A.** 66 µM

**Q.** And the ED200 (Homo sapiens)?
**A.** 0.095 µM

**Q.** Which IC50 (Coagulation factor X) does the source give for `Cn1c(=O)c(Cc2ccc(C(=N)N)cc2)nc2cc(C(C)(C)C(=O)N3CCCCC3)ccc21` here?
**A.** 0.4 µM

**Q.** And the IC50 (Prothrombin)?
**A.** 0.008 µM

**Q.** What about the IC50 [1] of the same molecule?
**A.** 2.2 µM

**Q.** And the IC50 (Plasminogen)?
**A.** 60 µM

**Q.** What about the ED200 (Homo sapiens) of the same molecule?
**A.** 0.25 µM

**Q.** With `CC1CCCN(C(=O)C(C)(C)c2ccc3c(c2)nc(Cc2ccc(C(=N)N)cc2)c(=O)n3C)C1` (centres undefined) as the molecule, how does the IC50 (Coagulation factor X) read?
**A.** 0.59 µM

**Q.** What about the IC50 (Prothrombin) of the same molecule?
**A.** 0.012 µM

**Q.** What about the ED200 (Homo sapiens) of the same molecule?
**A.** 0.12 µM

**Q.** What does the source list for `Cn1c(=O)c(Cc2ccc(C(=N)N)cc2)nc2cc(C3(N(C(=O)CC(=O)O)C4CCCC4)CC3)ccc21`?
**A.** IC50 (Coagulation factor X): 3 µM; IC50 (Prothrombin): 0.015 µM; IC50 [1]: 0.55 µM; IC50 (Plasminogen): 36 µM; ED200 (Homo sapiens): 0.45 µM

**Q.** Which IC50 (Coagulation factor X) does the source give for `CCOC(=O)C(C)(C)c1ccc2c(c1)nc(Cc1ccc(C(=N)N)cc1)c(=O)n2C` here?
**A.** 10.6 µM

**Q.** And the IC50 (Prothrombin)?
**A.** 0.01 µM

**Q.** And the logP [2]?
**A.** 0.5

**Q.** And the IC50 [1]?
**A.** 0.41 µM

**Q.** What about the IC50 (Plasminogen) of the same molecule?
**A.** 75 µM

**Q.** What about the ED200 (Homo sapiens) of the same molecule?
**A.** 0.43 µM

**Q.** With `CCOC(=O)C(C)(C)c1ccc2c(C)cc(Oc3ccc(C(=N)N)cc3)nc2c1` as the molecule, how does the IC50 (Coagulation factor X) read?
**A.** 12.1 µM

**Q.** And the logP [2]?
**A.** 1.7

**Q.** And the IC50 [1]?
**A.** 2.4 µM

**Q.** And the ED200 (Homo sapiens)?
**A.** 0.94 µM

**Q.** With `CCOC(=O)C1(c2ccc3c(C)cc(Oc4ccc(C(=N)N)cc4)nc3c2)CCCC1` as the molecule, how does the IC50 (Prothrombin) read?
**A.** 0.03 µM

**Q.** What about the IC50 [1] of the same molecule?
**A.** 0.56 µM

**Q.** With `Cn1c(=O)c(Cc2ccc(C(=N)N)cc2)nc2cc(C3(C(=O)N4CCCC4C(=O)NCC(=O)O)CC3)ccc21` (centres undefined) as the molecule, how does the IC50 (Coagulation factor X) read?
**A.** > 100 µM

**Q.** What about the IC50 (Prothrombin) of the same molecule?
**A.** 0.19 µM

**Q.** And the IC50 [1]?
**A.** 2.4 µM

**Q.** And the IC50 (Plasminogen)?
**A.** 68 µM

**Q.** And the ED200 (Homo sapiens)?
**A.** 0.91 µM

**Q.** Which IC50 (Coagulation factor X) does the source give for `Cn1c(=O)c(Cc2ccc(C(=N)N)cc2)nc2cc(C(C)(C)C(=O)N3CCCC3)ccc21` here?
**A.** 0.5 µM

**Q.** What about the IC50 (Prothrombin) of the same molecule?
**A.** 0.005 µM

**Q.** And the logP [2]?
**A.** 1

**Q.** And the IC50 [1]?
**A.** 0.32 µM

**Q.** What about the IC50 (Plasminogen) of the same molecule?
**A.** 53 µM

**Q.** And the ED200 (Homo sapiens)?
**A.** 0.16 µM

Source: ChEMBL document CHEMBL1146615, “Heterocyclic thrombin inhibitors. Part 2: quinoxalinone derivatives as novel, potent antithrombotic agents” (Bioorg Med Chem Lett, 2003)
